Test results taken from patent US10092570B2 (Incyte Corporation, priority 2011, dated 2018).
pIC50: −log10 of the molar value. Counter-ions that a name gives are not always drawn.

Target: PI3Kδ (p110δ/p85α) (Homo sapiens (Human), UniProt O00329)
Experiment: Example A3: PI3Kδ scintillation proximity assay
Assay type: biochemical
Conditions: scintillation proximity assay, 20 μM ATP, 4 nM PI3Kδ; read-out: PI3Kδ SPA IC50
Protocol: [γ-^33P]ATP (10 mCi/mL) was purchased from Perkin-Elmer (Waltham, Mass.). […] PI3Kδ (p110δ/p85α) was purchased from Millipore (Bedford, Mass.). ATP, MgCl2, DTT, EDTA, MOPS and CHAPS were purchased from Sigma-Aldrich (St. Louis, Mo.). Wheat Germ Agglutinin (WGA) YSi SPA Scintillation Beads was purchased from GE healthcare life sciences (Piscataway, N.J.).
The kinase reaction was conducted in polystyrene 384-well matrix white plate from Thermo Fisher Scientific in a final volume of 25 μL. Inhibitors were first diluted serially in DMSO and added to the plate wells before the addition of other reaction components. The final concentration of DMSO in the assay was 0.5%. The PI3K assays were carried out at room temperature in 20 mM MOPS, pH 6.7, 10 mM MgCl2, 5 mM DTT and CHAPS 0.03%. Reactions were initiated by the addition of ATP, the final reaction mixture consisted of 20 μM PIP2, 20 μM ATP, 0.2 μCi [γ-^33P] ATP, 4 nM PI3Kδ. […] 25 mM EDTA, 400 μM ATP. The final concentration of SPA beads was 1.0 mg/mL. After the plate sealing, plates were shaken overnight at room temperature and centrifuged at 1800 rpm for 10 minutes, the radioactivity of the product was determined by scintillation counting on Topcount (Perkin-Elmer). IC50 determination was performed by fitting the curve of percent control activity versus the log of the inhibitor concentration using the GraphPad Prism 3.0 software.

PI3Kδ (p110δ/p85α), sequence (O00329 whole entry): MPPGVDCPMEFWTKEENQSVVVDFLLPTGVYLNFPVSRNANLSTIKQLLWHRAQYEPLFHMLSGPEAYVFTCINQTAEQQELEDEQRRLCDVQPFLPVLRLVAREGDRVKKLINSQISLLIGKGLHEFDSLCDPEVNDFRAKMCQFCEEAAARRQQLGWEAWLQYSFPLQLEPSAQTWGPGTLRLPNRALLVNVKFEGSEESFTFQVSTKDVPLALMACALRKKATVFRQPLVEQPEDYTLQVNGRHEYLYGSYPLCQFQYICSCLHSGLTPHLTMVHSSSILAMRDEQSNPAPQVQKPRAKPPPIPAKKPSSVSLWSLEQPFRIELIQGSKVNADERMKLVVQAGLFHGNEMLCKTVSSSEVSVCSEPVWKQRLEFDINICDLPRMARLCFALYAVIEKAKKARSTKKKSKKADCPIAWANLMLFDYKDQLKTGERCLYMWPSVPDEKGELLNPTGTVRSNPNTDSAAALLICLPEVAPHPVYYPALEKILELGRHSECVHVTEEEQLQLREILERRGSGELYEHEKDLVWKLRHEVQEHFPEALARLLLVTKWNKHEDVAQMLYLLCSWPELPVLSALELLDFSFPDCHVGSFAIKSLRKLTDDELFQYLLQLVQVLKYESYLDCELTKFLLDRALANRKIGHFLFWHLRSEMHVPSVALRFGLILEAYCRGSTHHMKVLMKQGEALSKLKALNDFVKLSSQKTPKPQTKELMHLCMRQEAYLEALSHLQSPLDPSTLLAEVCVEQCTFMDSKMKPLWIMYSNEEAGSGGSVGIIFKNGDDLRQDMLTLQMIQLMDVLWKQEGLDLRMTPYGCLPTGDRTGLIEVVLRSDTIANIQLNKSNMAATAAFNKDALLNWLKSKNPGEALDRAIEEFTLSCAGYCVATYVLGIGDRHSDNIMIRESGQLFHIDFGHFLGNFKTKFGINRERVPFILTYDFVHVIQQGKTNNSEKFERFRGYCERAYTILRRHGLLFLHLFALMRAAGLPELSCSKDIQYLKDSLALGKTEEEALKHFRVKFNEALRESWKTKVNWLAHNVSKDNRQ
PI3Kδ (p110δ/p85α), sequence (P27986 whole entry partner): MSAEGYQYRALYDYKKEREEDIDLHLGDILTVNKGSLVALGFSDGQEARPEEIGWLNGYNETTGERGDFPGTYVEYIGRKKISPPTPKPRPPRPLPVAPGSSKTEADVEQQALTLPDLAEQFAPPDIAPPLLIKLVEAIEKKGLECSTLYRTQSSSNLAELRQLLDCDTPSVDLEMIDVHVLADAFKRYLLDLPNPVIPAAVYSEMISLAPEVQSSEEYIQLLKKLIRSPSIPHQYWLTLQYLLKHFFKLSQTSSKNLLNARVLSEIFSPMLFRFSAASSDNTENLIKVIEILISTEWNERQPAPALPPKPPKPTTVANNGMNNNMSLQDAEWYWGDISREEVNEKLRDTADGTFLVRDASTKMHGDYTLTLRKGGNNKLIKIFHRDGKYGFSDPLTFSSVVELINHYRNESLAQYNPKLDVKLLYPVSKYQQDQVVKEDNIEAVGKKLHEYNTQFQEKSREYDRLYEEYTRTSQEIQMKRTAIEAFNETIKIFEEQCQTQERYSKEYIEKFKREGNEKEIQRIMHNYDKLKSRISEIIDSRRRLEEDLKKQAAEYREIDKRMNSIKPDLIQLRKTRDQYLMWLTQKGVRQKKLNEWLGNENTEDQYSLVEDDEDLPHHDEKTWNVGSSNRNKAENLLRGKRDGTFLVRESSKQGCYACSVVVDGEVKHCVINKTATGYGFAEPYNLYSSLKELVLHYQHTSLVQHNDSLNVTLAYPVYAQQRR

CCOc1c(C(C)n2nc(-c3ccc(C(=O)NC)nc3)c3c(N)ncnc32)cc(Cl)c(C)c1-c1ccc(C(=O)N(C)C)nc1 (racemic) [Example 59, 5-{3-[1-(4-amino-3-{6-[(methylamino)carbonyl]pyridin-3-yl}-1H-pyrazolo[3,4-d]pyrimidin-1-yl)ethyl]-5-chloro-2-ethoxy-6-methylphenyl}-N,N-dimethylpyridine-2-carboxamide tris(trifluoroacetate)]
pIC50: > 8.00

COc1c(C(C)n2nc(C)c3c(N)ncnc32)cc(Cl)c(C)c1C1CN(CC#N)C1 (single isomer, unassigned) [Example 105, (3-{3-[1-(4-Amino-3-methyl-1H-pyrazolo[3,4-d]pyrimidin-1-yl)ethyl]-5-chloro-2-methoxy-6-methylphenyl}azetidin-1-yl)acetonitrile]
pIC50: > 8.00

CCOc1c(C(C)n2nc(C)c3c(N)ncnc32)cc(Cl)c(F)c1C1COC(=O)N1 (single isomer, unassigned) [Example 353, 4-{3-[1-(4-amino-3-methyl-1H-pyrazolo[3,4-d]pyrimidin-1-yl)ethyl]-5-chloro-2-ethoxy-6-fluorophenyl}-1,3-oxazolidin-2-one]
pIC50: < 6.30

COc1c(C(C)n2nc(C)c3c(N)ncnc32)cc(Cl)c(F)c1C1CN(CCO)C1 (racemic) [Example 71, 2-(3-{3-[1-(4-Amino-3-methyl-1H-pyrazolo[3,4-d]pyrimidin-1-yl)ethyl]-5-chloro-6-fluoro-2-methoxyphenyl}azetidin-1-yl)ethanol]
pIC50: > 8.00

CCOc1c(C(C)n2nc(C(F)F)c3c(N)ncnc32)cc(Cl)c(F)c1C1CN(C[C@@H](C)O)C1 (stereo partly drawn) [Example 155, (2R)-1-[3-(3-{1-[4-Amino-3-(difluoromethyl)-1H-pyrazolo[3,4-d]pyrimidin-1-yl]ethyl}-5-chloro-2-ethoxy-6-fluorophenyl)azetidin-1-yl]propan-2-ol]
pIC50: > 8.00

CCOc1c(C(C)n2nc(C)c3c(N)ncnc32)cc(Cl)c(C#N)c1C1CN(C(=O)OC(C)C)C1 (single isomer, unassigned) [Example 254, Isopropyl 3-{3-[1-(4-amino-3-methyl-1H-pyrazolo[3,4-d]pyrimidin-1-yl)ethyl]-5-chloro-6-cyano-2-ethoxyphenyl}azetidine-1-carboxylate]
pIC50: > 8.00

COc1c(C(C)n2nc(C)c3c(N)ncnc32)cc(Cl)c(C#N)c1C1CN(S(C)(=O)=O)C1 (single isomer, unassigned) [Example 285, 4-[1-(4-Amino-3-methyl-1H-pyrazolo[3,4-d]pyrimidin-1-yl)ethyl]-6-chloro-3-methoxy-2-[1-(methylsulfonyl)azetidin-3-yl]benzonitrile]
pIC50: > 8.00

COc1c(C(C)n2ccc3c(N)ncnc32)cc(Cl)c(C)c1-c1ccc(C(=O)N(C)C)nc1 (centres unmarked) [Example 12, 5-{3-[1-(4-Amino-7H-pyrrolo[2,3-d]pyrimidin-7-yl)ethyl]-5-chloro-2-methoxy-6-methylphenyl}-N,N-dimethylpyridine-2-carboxamide trifluoroacetate]
pIC50: 6.30 to 6.70

COc1c(C(C)n2nc(C)c3c(N)ncnc32)cc(Cl)c(C)c1-c1ccc(C(=O)NCCO)nc1 (centres unmarked) [Example 23, 5-(3-(1-(4-amino-3-methyl-1H-pyrazolo[3,4-d]pyrimidin-1-yl)ethyl)-5-chloro-2-methoxy-6-methylphenyl)-N-(2-hydroxyethyl)picolinamide trifluoroacetate]
pIC50: > 8.00

COc1c(C(C)n2nc(C)c3c(N)ncnc32)cc(Cl)c(C)c1C1CN(CC(C)(C)O)C1 (centres unmarked) [Example 158, 1-(3-{3-[1-(4-Amino-3-methyl-1H-pyrazolo[3,4-d]pyrimidin-1-yl)ethyl]-5-chloro-2-methoxy-6-methylphenyl}azetidin-1-yl)-2-methylpropan-2-ol]
pIC50: > 8.00

CCNC(=O)c1c(C)c(Cl)cc(C(C)n2nc(-c3ccc4cn[nH]c4c3)c3c(N)ncnc32)c1OCC (racemic) [Example 92, 3-{1-[4-Amino-3-(1H-indazol-6-yl)-1H-pyrazolo[3,4-d]pyrimidin-1-yl]ethyl}-5-chloro-2-ethoxy-N-ethyl-6-methylbenzamide]
pIC50: > 8.00

COc1c(C(C)n2nc(C)c3c(N)ncnc32)cc(Cl)c(F)c1C1CN(C)C1 (centres unmarked) [Example 72]
pIC50: > 8.00

4-[1-(4-Amino-3-methyl-1H-pyrazolo[3,4-d]pyrimidin-1-yl)ethyl]-6-chloro-2-[1-(2-hydroxyethyl)azetidin-3-yl]-3-methoxybenzonitrile-d4 [Example 297]
pIC50: > 8.00

COc1c(C(C)n2nc(C)c3c(N)ncnc32)cc(Cl)c(C)c1C1CCN(CC(C)(C)O)CC1 (racemic) [Example 164, 1-(4-{3-[1-(4-Amino-3-methyl-1H-pyrazolo[3,4-d]pyrimidin-1-yl)ethyl]-5-chloro-2-methoxy-6-methylphenyl}piperidin-1-yl)-2-methylpropan-2-ol]
pIC50: > 8.00

COc1c(C(C)n2nc(C)c3c(N)ncnc32)cc(Cl)c(C#N)c1C1CN(C2COC2)C1 (single isomer, unassigned) [Example 274, 4-[1-(4-Amino-3-methyl-1H-pyrazolo[3,4-d]pyrimidin-1-yl)ethyl]-6-chloro-3-methoxy-2-(1-oxetan-3-ylazetidin-3-yl)benzonitrile]
pIC50: > 8.00

COc1c(C(C)n2nc(C)c3c(N)ncnc32)cc(Cl)c(C)c1C1CN(C2COC2)C1 (racemic) [Example 63, 1-{1-[5-chloro-2-methoxy-4-methyl-3-(1-oxetan-3-ylazetidin-3-yl)phenyl]ethyl}-3-methyl-1H-pyrazolo[3,4-d]pyrimidin-4-amine]
pIC50: > 8.00

CCOc1c(C(C)n2cc(C)c3c(N)ncnc32)cc(Cl)c(C#N)c1C1CN(C[C@H](C)O)C1 (stereo partly drawn) [Example 309, 4-[1-(4-Amino-5-methyl-7H-pyrrolo[2,3-d]pyrimidin-7-yl)ethyl]-6-chloro-3-ethoxy-2-{1-[(2S)-2-hydroxypropyl]azetidin-3-yl}benzonitrile]
pIC50: > 8.00

COc1c(C(C)n2nc(C)c3c(N)ncnc32)cc(Cl)c(C)c1C1CN([C@H](C)CO)C1 (stereo partly drawn) [Example 156, (2R)-2-(3-{3-[1-(4-Amino-3-methyl-1H-pyrazolo[3,4-d]pyrimidin-1-yl)ethyl]-5-chloro-2-methoxy-6-methylphenyl}azetidin-1-yl)propan-1-ol]
pIC50: > 8.00

COc1c(C(C)n2nc(C)c3c(N)ncnc32)cc(Cl)c(Cl)c1C1CN(C[C@H](C)O)C1 (stereo partly drawn) [Example 301, (2S)-1-(3-{3-[1-(4-Amino-3-methyl-1H-pyrazolo[3,4-d]pyrimidin-1-yl)ethyl]-5,6-dichloro-2-methoxyphenyl}azetidin-1-yl)propan-2-ol]
pIC50: > 8.00

CCOc1c(C(C)n2nc(-c3cncc(C#N)c3)c3c(N)ncnc32)cc(Cl)c(C)c1-c1ccc(C(=O)N(C)C)nc1 (centres unmarked) [Example 57, 5-(3-{1-[4-amino-3-(5-cyanopyridin-3-yl)-1H-pyrazolo[3,4-d]pyrimidin-1-yl]ethyl}-5-chloro-2-ethoxy-6-methylphenyl)-N,N-dimethylpyridine-2-carboxamide tris(trifluoroacetate)]
pIC50: > 8.00

COc1c(C(C)n2nc(C)c3c(N)ncnc32)cc(Cl)c(C)c1C1CN([C@H](C)C(=O)N(C)C)C1 (stereo partly drawn) [Example 159, (2R)-2-(3-{3-[1-(4-Amino-3-methyl-1H-pyrazolo[3,4-d]pyrimidin-1-yl)ethyl]-5-chloro-2-methoxy-6-methylphenyl}azetidin-1-yl)-N,N-dimethylpropanamide]
pIC50: > 8.00

CCOc1c(C(C)n2ccc(=O)c3c(N)ncnc32)cc(Cl)c(C#N)c1-c1cncc(S(C)(=O)=O)c1 (racemic) [Example 46, 4-(1-(4-amino-5-oxopyrido[2,3-d]pyrimidin-8(5H)-yl)ethyl)-6-chloro-3-ethoxy-2-(5-(methylsulfonyl)pyridin-3-yl)benzonitrile]
pIC50: > 8.00

CCOc1c(C(C)n2nc(C)c3c(N)ncnc32)cc(Cl)c(C#N)c1C1CN(C2CCOC2)C1 (single isomer, unassigned) [Example 228, 4-[1-(4-Amino-3-methyl-1H-pyrazolo[3,4-d]pyrimidin-1-yl)ethyl]-6-chloro-3-ethoxy-2-[1-(tetrahydrofuran-3-yl)azetidin-3-yl]benzonitrile]
pIC50: > 8.00

CNC(=O)c1cc(-c2c(C)c(Cl)cc(C(C)n3nc(C)c4c(N)ncnc43)c2OC)ccn1 (racemic) [Example 17, 4-(3-(1-(4-amino-3-methyl-1H-pyrazolo[3,4-d]pyrimidin-1-yl)ethyl)-5-chloro-2-methoxy-6-methylphenyl)-N-methylpicolinamide]
pIC50: > 8.00

CNC(=O)CCc1c(C)c(Cl)cc(C(C)n2nc(C)c3c(N)ncnc32)c1OC (single isomer, unassigned) [Example 179, 3-(3-(1-(4-Amino-3-methyl-1H-pyrazolo[3,4-d]pyrimidin-1-yl)ethyl)-5-chloro-2-methoxy-6-methylphenyl)-N-methylpropanamide 2,2,2-trifluoroacetate]
pIC50: > 8.00

CCOc1c(C(C)n2nc(C)c3c(N)ncnc32)cc(Cl)c(C#N)c1N1CCCC1 (racemic) [Example 318, 4-[1-(4-amino-3-methyl-1H-pyrazolo[3,4-d]pyrimidin-1-yl)ethyl]-6-chloro-3-ethoxy-2-pyrrolidin-1-ylbenzonitrile]
pIC50: > 8.00
